# Columns and labels:
# [1] = target: Serine/threonine-protein kinase 32B (Homo sapiens) (UniProt Q9NY57); test: Binding affinity to wild-type human full length YANK2 (M1 to S414 residues) expressed in bacterial expression system assessed as residual binding level at 10 uM by Kinomescan method relative to control
# [2] = target: Serine/threonine-protein kinase Nek9 (Homo sapiens) (UniProt Q8TD19); test: Binding affinity to wild-type human partial length NEK9 (P32 to R328 residues) expressed in bacterial expression system assessed as residual binding level at 10 uM by Kinomescan method relative to control
# [3] = target: Serine/threonine-protein kinase Nek2 (Homo sapiens) (UniProt P51955); test: Binding affinity to wild-type human partial length NEK2 (M1 to K309 residues) expressed in bacterial expression system assessed as residual binding level at 10 uM by Kinomescan method relative to control
# [4] = target: Rho-associated protein kinase 1 (Homo sapiens) (UniProt Q13464); test: Binding affinity to wild-type human partial length ROCK1 (M1 to R415 residues) expressed in mammalian expression system assessed as residual binding level at 10 uM by Kinomescan method relative to control
# Chain of Rho-associated protein kinase 1 (Homo sapiens) (Q13464 2-1354 limits assumed): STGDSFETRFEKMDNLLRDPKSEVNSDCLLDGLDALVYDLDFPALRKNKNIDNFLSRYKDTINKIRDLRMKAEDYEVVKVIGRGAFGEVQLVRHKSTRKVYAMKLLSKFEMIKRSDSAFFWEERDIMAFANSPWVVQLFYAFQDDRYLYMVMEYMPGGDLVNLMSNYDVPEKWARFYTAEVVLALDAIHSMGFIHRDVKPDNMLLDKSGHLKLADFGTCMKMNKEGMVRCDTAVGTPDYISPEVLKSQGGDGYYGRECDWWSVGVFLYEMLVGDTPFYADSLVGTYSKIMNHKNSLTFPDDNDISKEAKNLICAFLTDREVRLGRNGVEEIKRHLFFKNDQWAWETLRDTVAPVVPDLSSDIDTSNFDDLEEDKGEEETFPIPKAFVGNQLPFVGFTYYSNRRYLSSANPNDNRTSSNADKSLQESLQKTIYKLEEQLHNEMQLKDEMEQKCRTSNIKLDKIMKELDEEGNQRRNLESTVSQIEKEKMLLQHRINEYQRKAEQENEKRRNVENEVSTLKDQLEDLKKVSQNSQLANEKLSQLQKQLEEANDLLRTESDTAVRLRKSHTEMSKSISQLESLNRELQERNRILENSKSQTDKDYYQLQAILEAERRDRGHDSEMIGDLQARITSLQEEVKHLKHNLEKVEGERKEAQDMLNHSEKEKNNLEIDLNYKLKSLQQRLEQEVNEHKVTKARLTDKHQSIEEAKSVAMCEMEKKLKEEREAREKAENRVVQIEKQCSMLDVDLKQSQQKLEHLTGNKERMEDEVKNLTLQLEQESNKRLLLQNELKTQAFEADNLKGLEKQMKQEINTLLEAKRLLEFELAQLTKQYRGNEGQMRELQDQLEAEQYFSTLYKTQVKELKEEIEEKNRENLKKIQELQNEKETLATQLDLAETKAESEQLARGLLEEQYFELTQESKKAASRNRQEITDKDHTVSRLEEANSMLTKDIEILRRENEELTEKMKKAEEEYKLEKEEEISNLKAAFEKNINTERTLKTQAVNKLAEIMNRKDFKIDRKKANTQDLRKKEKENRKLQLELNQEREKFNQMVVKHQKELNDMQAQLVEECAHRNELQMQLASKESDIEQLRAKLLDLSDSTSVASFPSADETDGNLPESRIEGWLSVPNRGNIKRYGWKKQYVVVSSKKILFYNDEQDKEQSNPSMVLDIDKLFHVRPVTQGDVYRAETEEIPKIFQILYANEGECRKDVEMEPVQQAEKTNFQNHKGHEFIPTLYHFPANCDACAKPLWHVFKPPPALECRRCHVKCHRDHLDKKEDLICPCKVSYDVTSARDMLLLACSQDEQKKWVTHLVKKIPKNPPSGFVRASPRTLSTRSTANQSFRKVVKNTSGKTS
# [5] = target: Mitogen-activated protein kinase kinase kinase 14 (Homo sapiens) (UniProt Q99558); test: Binding affinity to wild-type human partial length NIK (L318 to P947 residues) expressed in mammalian expression system assessed as residual binding level at 10 uM by Kinomescan method relative to control
# [6] = target: Serine/threonine-protein kinase PLK3 (Homo sapiens) (UniProt Q9H4B4); test: Binding affinity to wild-type human partial length PLK3 (A42 to L334 residues) expressed in mammalian expression system assessed as residual binding level at 10 uM by Kinomescan method relative to control
# Chain of Serine/threonine-protein kinase PLK3 (Homo sapiens) (Q9H4B4 whole entry, looked up, the tested form may be a part): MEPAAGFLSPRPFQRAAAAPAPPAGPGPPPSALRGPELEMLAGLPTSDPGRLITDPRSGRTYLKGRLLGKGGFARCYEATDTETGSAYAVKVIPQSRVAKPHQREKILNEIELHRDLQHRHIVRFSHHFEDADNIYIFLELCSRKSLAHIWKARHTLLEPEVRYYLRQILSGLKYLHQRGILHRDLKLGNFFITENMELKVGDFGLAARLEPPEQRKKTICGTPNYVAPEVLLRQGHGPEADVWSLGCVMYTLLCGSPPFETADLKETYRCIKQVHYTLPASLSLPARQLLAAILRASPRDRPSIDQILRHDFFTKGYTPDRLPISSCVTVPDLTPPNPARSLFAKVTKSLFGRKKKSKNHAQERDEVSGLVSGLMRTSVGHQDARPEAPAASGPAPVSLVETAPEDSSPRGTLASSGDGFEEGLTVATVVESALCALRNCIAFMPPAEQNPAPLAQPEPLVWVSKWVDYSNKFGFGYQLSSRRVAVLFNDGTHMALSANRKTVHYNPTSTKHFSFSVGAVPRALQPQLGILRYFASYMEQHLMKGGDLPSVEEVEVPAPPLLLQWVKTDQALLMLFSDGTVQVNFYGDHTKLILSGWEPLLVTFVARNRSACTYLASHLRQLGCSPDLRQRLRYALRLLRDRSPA
# [7] = target: Serine/threonine-protein kinase MARK2 (Homo sapiens) (UniProt Q7KZI7); test: Binding affinity to wild-type human partial length MARK2 (M1 to R450 residues) expressed in bacterial expression system assessed as residual binding level at 10 uM by Kinomescan method relative to control
# [8] = target: Vascular endothelial growth factor receptor 1 (Homo sapiens) (UniProt P17948); test: Binding affinity to wild-type human partial length FLT1 (R781 to F1239 residues) expressed in bacterial expression system assessed as residual binding level at 10 uM by Kinomescan method relative to control
# [9] = target: Death-associated protein kinase 2 (Homo sapiens) (UniProt Q9UIK4); test: Binding affinity to wild-type human full length DAPK2 (M1 to S370 residues) expressed in bacterial expression system assessed as residual binding level at 10 uM by Kinomescan method relative to control
# Chain of Death-associated protein kinase 2 (Homo sapiens) (Q9UIK4 whole entry, looked up, the tested form may be a part): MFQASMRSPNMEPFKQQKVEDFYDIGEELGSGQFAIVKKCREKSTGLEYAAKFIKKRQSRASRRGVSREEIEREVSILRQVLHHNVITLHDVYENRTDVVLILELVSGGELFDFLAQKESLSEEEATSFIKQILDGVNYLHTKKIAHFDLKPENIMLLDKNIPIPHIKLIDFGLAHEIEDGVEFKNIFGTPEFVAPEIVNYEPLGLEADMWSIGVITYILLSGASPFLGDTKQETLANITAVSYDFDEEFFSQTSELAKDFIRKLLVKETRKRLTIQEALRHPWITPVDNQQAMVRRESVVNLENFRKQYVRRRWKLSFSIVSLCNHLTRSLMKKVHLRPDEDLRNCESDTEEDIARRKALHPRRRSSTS
# [10] = target: Mitogen-activated protein kinase kinase kinase 12 (DLK) (Homo sapiens) (UniProt Q12852); test: Binding affinity to wild-type human full length DLK (M1 to P859 residues) expressed in mammalian expression system assessed as residual binding level at 10 uM by Kinomescan method relative to control
# [11] = target: Cyclin-dependent kinase-like 1 (Homo sapiens) (UniProt Q00532); test: Binding affinity to wild-type human full length CDKL1 (M1 to I358 residues) expressed in mammalian expression system assessed as residual binding level at 10 uM by Kinomescan method relative to control
# Chain of Cyclin-dependent kinase-like 1 (Homo sapiens) (Q00532 whole entry, the tested form may be a part): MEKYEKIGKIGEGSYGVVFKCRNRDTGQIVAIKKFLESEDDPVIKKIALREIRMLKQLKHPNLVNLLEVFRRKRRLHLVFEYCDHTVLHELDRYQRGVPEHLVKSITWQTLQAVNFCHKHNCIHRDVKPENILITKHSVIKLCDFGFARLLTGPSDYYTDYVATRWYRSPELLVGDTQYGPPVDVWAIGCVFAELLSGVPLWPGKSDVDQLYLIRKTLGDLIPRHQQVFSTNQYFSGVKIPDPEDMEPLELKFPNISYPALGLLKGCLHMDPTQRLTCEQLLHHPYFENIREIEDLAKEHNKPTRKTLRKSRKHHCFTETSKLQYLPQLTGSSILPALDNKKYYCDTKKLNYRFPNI
# [12] = target: Fibroblast growth factor receptor 4 (Homo sapiens) (UniProt P22455); test: Binding affinity to wild-type human partial length FGFR4 (G402 to E713 residues) expressed in bacterial expression system assessed as residual binding level at 10 uM by Kinomescan method relative to control
# [13] = target: Serine/threonine-protein kinase MRCK gamma (Homo sapiens) (UniProt Q6DT37); test: Binding affinity to wild-type human partial length DMPK2 (S46 to S408 residues) expressed in bacterial expression system assessed as residual binding level at 10 uM by Kinomescan method relative to control
# Chain of Serine/threonine-protein kinase MRCK gamma (Homo sapiens) (Q6DT37 whole entry, the tested form may be a part): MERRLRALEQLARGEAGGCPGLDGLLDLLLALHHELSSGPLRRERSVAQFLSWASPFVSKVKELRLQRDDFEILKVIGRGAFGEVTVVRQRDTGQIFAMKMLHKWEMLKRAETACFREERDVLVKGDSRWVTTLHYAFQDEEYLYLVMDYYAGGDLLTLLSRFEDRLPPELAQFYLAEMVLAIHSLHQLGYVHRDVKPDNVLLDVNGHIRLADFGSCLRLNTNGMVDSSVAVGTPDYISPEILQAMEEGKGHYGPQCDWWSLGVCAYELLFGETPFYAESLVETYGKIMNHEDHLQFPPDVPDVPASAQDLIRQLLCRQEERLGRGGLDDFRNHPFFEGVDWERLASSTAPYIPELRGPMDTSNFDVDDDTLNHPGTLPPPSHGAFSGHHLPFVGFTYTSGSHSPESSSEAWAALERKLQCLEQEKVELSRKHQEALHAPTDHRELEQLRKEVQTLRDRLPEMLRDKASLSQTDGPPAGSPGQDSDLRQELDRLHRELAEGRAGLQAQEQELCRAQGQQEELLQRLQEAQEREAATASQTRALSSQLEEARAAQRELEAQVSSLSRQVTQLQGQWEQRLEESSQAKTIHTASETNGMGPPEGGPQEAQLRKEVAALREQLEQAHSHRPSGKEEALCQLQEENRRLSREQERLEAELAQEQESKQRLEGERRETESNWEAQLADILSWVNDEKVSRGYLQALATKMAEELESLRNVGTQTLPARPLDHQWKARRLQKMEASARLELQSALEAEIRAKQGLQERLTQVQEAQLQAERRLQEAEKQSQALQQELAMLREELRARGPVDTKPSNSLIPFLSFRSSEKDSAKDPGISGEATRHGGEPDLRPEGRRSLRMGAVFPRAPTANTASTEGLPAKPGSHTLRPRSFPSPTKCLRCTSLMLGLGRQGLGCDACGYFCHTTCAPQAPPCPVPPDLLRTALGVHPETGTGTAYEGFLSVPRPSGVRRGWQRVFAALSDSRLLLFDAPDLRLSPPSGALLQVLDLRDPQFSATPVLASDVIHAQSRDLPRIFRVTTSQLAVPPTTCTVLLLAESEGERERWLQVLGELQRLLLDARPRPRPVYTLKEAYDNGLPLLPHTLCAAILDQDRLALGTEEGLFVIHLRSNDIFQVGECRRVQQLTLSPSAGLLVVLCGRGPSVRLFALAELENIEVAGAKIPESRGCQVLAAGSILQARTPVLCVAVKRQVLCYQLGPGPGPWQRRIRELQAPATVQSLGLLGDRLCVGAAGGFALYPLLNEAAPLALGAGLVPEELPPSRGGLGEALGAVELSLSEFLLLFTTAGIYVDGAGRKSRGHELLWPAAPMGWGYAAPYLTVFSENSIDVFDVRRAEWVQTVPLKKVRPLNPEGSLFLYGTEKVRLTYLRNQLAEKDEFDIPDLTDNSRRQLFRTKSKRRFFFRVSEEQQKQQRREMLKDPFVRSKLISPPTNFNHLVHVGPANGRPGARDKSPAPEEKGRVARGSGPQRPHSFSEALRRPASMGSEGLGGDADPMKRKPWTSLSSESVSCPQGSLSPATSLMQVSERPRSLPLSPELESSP
# [14] = Stability of compound in D2O at 0.012 mmol followed by H2O2 addition measured after 2 hrs by 1H-NMR spectroscopy; type: physicochemical
# [15] = target: Serine/threonine-protein kinase PknB (Mycobacterium tuberculosis) (UniProt P9WI81); test: Binding affinity to wild-type Mycobacterium tuberculosis partial length PKNB (M1 to G279 residues) expressed in mammalian expression system assessed as residual binding level at 10 uM by Kinomescan method relative to control
# [16] = target: Serine/threonine-protein kinase 35 (Homo sapiens) (UniProt Q8TDR2); test: Binding affinity to wild-type human partial length STK35 (G182 to A534 residues) expressed in bacterial expression system assessed as residual binding level at 10 uM by Kinomescan method relative to control
# [17] = target: Dual specificity protein kinase CLK2 (Homo sapiens) (UniProt P49760); test: Binding affinity to wild-type human partial length CLK2 (D144 to R498 residues) expressed in bacterial expression system assessed as residual binding level at 10 uM by Kinomescan method relative to control
# [18] = target: Phosphatidylinositol 3-kinase C2 domain-containing subunit gamma (Homo sapiens) (UniProt O75747); test: Binding affinity to wild-type human partial length PIK3C2G (M1 to I1446 residues) expressed in mammalian expression system assessed as residual binding level at 10 uM by Kinomescan method relative to control
# [19] = target: Protein kinase C epsilon type (Homo sapiens) (UniProt Q02156); test: Binding affinity to wild-type human partial length PRKCE (A378 to P737 residues) expressed in mammalian expression system assessed as residual binding level at 10 uM by Kinomescan method relative to control
# [20] = system: Fibroblast growth factor receptor 3 (Homo sapiens), P22607 [G697C]; test: Binding affinity to human partial length FGFR3 G697C mutant (R442 to S771 residues) expressed in bacterial expression system assessed as residual binding level at 10 uM by Kinomescan method relative to control
# [21] = target: Dual specificity mitogen-activated protein kinase kinase 3 (Homo sapiens) (UniProt P46734); test: Binding affinity to wild-type human full length MEK3 (M1 to S318 residues) expressed in mammalian expression system assessed as residual binding level at 10 uM by Kinomescan method relative to control
# [22] = target: Platelet-derived growth factor receptor alpha (Homo sapiens) (UniProt P16234); test: Binding affinity to wild-type human partial length PDGFRA (V575 to D1002 residues) expressed in mammalian expression system assessed as residual binding level at 10 uM by Kinomescan method relative to control
# [23] = target: Bone morphogenetic protein receptor type-1A (Homo sapiens) (UniProt P36894); test: Binding affinity to wild-type human partial length BMPR1A (Q214 to I532 residues) expressed in bacterial expression system assessed as residual binding level at 10 uM by Kinomescan method relative to control
# Chain of Bone morphogenetic protein receptor type-1A (Homo sapiens) (P36894 whole entry, the tested form may be a part): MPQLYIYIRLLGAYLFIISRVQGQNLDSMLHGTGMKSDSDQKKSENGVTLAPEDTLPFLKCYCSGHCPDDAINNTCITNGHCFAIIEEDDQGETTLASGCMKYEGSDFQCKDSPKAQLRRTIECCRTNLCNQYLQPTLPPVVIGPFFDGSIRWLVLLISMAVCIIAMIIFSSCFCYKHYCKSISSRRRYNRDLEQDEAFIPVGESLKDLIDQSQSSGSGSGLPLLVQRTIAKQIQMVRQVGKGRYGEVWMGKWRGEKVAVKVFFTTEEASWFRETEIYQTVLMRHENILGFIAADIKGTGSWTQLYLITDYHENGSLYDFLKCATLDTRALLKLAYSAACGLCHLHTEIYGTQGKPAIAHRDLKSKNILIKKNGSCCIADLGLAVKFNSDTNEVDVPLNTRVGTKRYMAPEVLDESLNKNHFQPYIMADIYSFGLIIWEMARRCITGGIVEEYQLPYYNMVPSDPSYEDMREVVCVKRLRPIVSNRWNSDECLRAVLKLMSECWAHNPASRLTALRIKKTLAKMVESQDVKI
# [24] = target: Cyclin-dependent kinase 2 homolog (Plasmodium falciparum (isolate 3D7)) (UniProt P61075); test: Binding affinity to wild-type Plasmodium falciparum full length PK5 (M1 to N288 residues) expressed in mammalian expression system assessed as residual binding level at 10 uM by Kinomescan method relative to control
compound,measurement,setting,value
CC(C)N1C(=O)C(NCCCN(C)C)=C(c2cn(C)c3ccccc23)C1=O.Cl,Activity,[1],99%
same,Activity,[2],100%
same,Activity,[3],94%
same,Activity,[4],96%
same,Activity,[5],93%
same,Activity,[6],100%
same,Activity,[7],93%
same,Activity,[8],82%
same,Activity,[9],100%
same,Activity,[10],99%
same,Activity,[11],73%
same,Activity,[12],100%
same,Activity,[13],93%
same,Stability,[14],Stable
same,Activity,[15],91%
same,Activity,[16],100%
same,Activity,[17],90%
same,Activity,[18],84%
same,Activity,[19],94%
same,Activity,[20],79%
same,Activity,[21],97%
same,Activity,[22],86%
same,Activity,[23],100%
same,Activity,[24],87%
